How the values were obtained:
Test in all cases: cells
Parameters in all cases: CellTiter-Glo 2.0 luminescence proliferation/viability assay, single agents, human tumour cell line panel
C80 = conditions: 96 h; single agent; read-out: IC50 SMACm
Procedure: (§1) The effect of BETi, SMACm alone or in combination cell viability was determined using a 96-h CellTiter-Glo2.0 proliferation assay. Cells were seeded in assay plates and placed at 37°C with 5% CO2 for twenty-four hours before treatment. Compounds were added in triplicate in gradients of increasing concentrations, in case of SMACm ranging between 4.5 nM and 10 μM and in case of BETi between 1.4 nM and 3 μM. DMSO served as control. Cell viability was measured by luminescence analysis using luminescence read on Envision plate readers (PerkinElmer). An additional set of colorectal cancer cell lines was assayed with technical duplicates and experimental triplicates. Cell viability was measured by luminescence analysis using luminescence read on Tecan Plate reader. The effects of drug combinations were analyzed using the Bliss Independence Model.[34] Synergy score was calculated by the average of 3 highest and 3 lowest BLISS Gaps between predicted and measured POC (Percentage of Control) values. To investigate the synergistic interaction between BI 894999 (hereafter, BETi) and BI 891065 (hereafter, SMACm), we evaluated the in vitro anti-tumor effect of the single agents or the combination in a large panel of 151 cancer cell lines of different tissue origin: CRC, gastric cancer, non-small cell lung cancer (NSCLC), and pancreatic carcinoma (Figures 1C–1F). As a mono-agent, SMACm was able to inhibit cell proliferation only in a limited number of tested cell lines (4%, Table S2). Most of the cell lines responded to inhibition by BETi, with sensitivity ranging from 10 to 100 nM (Figure 1C). Bliss Gap analysis, performed to analyze the effect of the BETi+SMACm combination on tumor cell growth (Figures 1D–1F), unveiled potent synergistic activity across the cell models tested (Figure 1E), independent of tumor type (Figure 1F).  Figure 1 The combinatorial effect of BI 894999 and BI 891065 across a panel of human tumor cell lines (A) Selectivity and potency profiles of BI 891065. Top left, structure of BI 891065. Top right, IC50 values for BI 891065 inhibition of cIAP1, cIAP2, and XIAP. Bottom, physicochemical properties of […]. (B) WES (Simple Western System) analysis of cIAP1, cIAP2, and XIAP levels upon treatment of HT-29 cells with indicated concentrations of BI 891065 for 6 h (C) IC50 values determined in cell proliferation assays (n = 151) individually for BETi BI 894999 and SMACm BI 891065. Each point represents a cell line tested. (D) Example of proliferation assay for synergy analysis in LoVo cell line; shown is combination plate map matrix and the cell growth inhibition (CGI) at the indicated concentrations; CGI values < 100%: tumor cell growth, CGI 100%: tumor cell stasis, and CGI > 100%: tumor cell killing. (E) Synergy scores across the tested panel of cell lines obtained using Bliss synergy analysis. (F) Violin plots showing the synergy scores for BETi and SMACm combination across indications. N is the number of cell lines tested in each indication group.

C99 = conditions: 96 h; single agent; read-out: IC50 SMACm
Procedure: as §1

CAPAN-2 = conditions: Homo sapiens, Capan-2, 96 h; single agent; read-out: IC50 SMACm
Procedure: as §1

COLO-320-HSR = conditions: Homo sapiens, COLO-320-HSR, 96 h; single agent; read-out: IC50 SMACm
Procedure: as §1

COLO60H = conditions: 96 h; single agent; read-out: IC50 SMACm
Procedure: as §1

HT55 = conditions: Homo sapiens, HT55, 96 h; single agent; read-out: IC50 SMACm
Procedure: as §1

HUTU-80 = conditions: Homo sapiens, HuTu80, 96 h; single agent; read-out: IC50 SMACm
Procedure: as §1

KP-4 = conditions: Homo sapiens, KP-4, 96 h; single agent; read-out: IC50 SMACm
Procedure: as §1

LIM2550 = conditions: 96 h; single agent; read-out: IC50 SMACm
Procedure: as §1

LS-411N = conditions: Homo sapiens, LS-411N, 96 h; single agent; read-out: IC50 SMACm
Procedure: as §1

NCI-H23 = conditions: Homo sapiens, NCI-H23, 96 h; single agent; read-out: IC50 SMACm
Procedure: as §1

SNU-324 = conditions: 96 h; single agent; read-out: IC50 SMACm
Procedure: as §1

SW837 = conditions: Homo sapiens, SW837, 96 h; single agent; read-out: IC50 SMACm
Procedure: as §1

T84 = conditions: Homo sapiens, T84, 96 h; single agent; read-out: IC50 SMACm
Procedure: as §1

WiDr = conditions: Homo sapiens, WiDr, 96 h; single agent; read-out: IC50 SMACm
Procedure: as §1

## CN[C@@H](C)C(=O)Nc1ccc(-c2c(-c3cccnc3OC)nc3cc(C)ccn23)c(C#Cc2ccc3c(C)nccc3c2)n1 [SMACm, BI 891065]
C80
  IC50: 1.81 µM
C99
  IC50: 3.8 µM
CAPAN-2
  IC50: 8.59 µM
COLO-320-HSR
  IC50: 2.86 µM
COLO60H
  IC50: 4.37 µM
HT55
  IC50: 5 µM
HUTU-80
  IC50: 3.31 µM
KP-4
  IC50: 4.16 µM
LIM2550
  IC50: 2.08 µM
LS-411N
  IC50: 4.43 µM
NCI-H23
  IC50: 3.42 µM
SNU-324
  IC50: 4.7 µM
SW837
  IC50: 6.24 µM
T84
  IC50: 4.44 µM
WiDr
  IC50: 4.25 µM
